The source of these data is publication PMC9146228, “Bioactivity of Novel Pyrazole-Thiazolines Scaffolds against Trypanosoma cruzi: Computational Approaches and 3D Spheroid Model on Drug Discovery for Chagas Disease” (Pharmaceutics, 2022).

Like-named read-outs stand apart in the source and are kept apart here.

In data set [1] the test system is T. cruzi Dm28c-Luc in Vero cell cultures. Put plainly: Reversibility (washout) assay. Format: cell-based, Trypanosoma cruzi. As to conditions: 72 h treatment then 72 h drug-free. The method, then:
Then, the cultures were washed with PBS, and maintained for another 72 h at 37 °C in a drug-free medium. Trypomastigotes released in the culture supernatant were detected by transferring the culture medium to 96-well plates, followed by luciferin (300 µg/mL) addition. Viable intracellular amastigotes were also accessed by adding luciferin solution to the cell monolayers.

Data set [2] concerns T. cruzi (strain Silvio X10/7). On the set-up: method as in PMID 30001347. As to conditions: 16 days treatment of infected Vero cell monolayers; cited from earlier work.
Data set [3] relates to T. cruzi (Dm28c-Luc) trypomastigotes. Kind of data set: microbe, parasite or virus in culture. Format: cell-based, Trypanosoma cruzi. The procedure: The screening assays were performed with T. cruzi clone Dm28c (TcI) genetically modified to express luciferase gene (Dm28c-Luc), kindly provided by Dr. Cristina Henriques. Trypomastigotes were isolated from T. cruzi-infected Vero cell monolayers (10:1 parasites/host cell ratio). On the 4th day post-infection (dpi), free trypomastigotes in the culture supernatant were harvested, and the number of parasites/mL was quantified in a Neubauer chamber.
The trypanocidal activity of the pyrazole-thiazoline derivatives was evaluated against trypomastigote and intracellular amastigote forms of T. cruzi (Dm28c-Luc). Tissue-derived trypomastigotes (1 × 10^6 parasites/well) were incubated with pyrazole-thiazoline derivatives and Bz in different concentrations (0.41–100 µM) for 24 h at 37 °C in a humidified atmosphere and 5% CO2. The parasite viability was determined by the addition of luciferin (300 µg/mL), followed by luminescence detection on the GloMax microplate reader (Promega Corporation, Madison, WI, USA).
(§1) After 72 h of treatment, luciferin (300 µg/mL) was added to the culture, and the viability of the parasites was assessed by reading the luminescent signal on the GloMax reader (Promega Corporation, Madison, WI, USA). Controls were also performed in non-toxic concentrations of DMSO (≤ 1%). The concentration that reduces the number of viable parasites by 50% (IC50) or 90% (IC90) was calculated by linear regression. The selectivity index (SI) was calculated as CC50/IC50 for each parasite form.

A short description of data set [4]: Cytotoxicity in vitro assay (CellTiter-Glo). Format: cell-based. The conditions noted are these: African green monkey, Vero cells, mean ± SD. The procedure: (§2) Vero cells, obtained from the Rio de Janeiro Cell Bank (BCRJ code 0245), were dissociated with trypsin–EDTA solution (0.025%), and maintained in RPMI 1640 medium supplemented with 10% fetal bovine serum (FBS) at 37 °C in a humidified atmosphere of 5% CO2.
(§3) The compound toxicity was evaluated in Vero cell cultures. Briefly, Vero cells were seeded in 96-well white culture plates at a density of 1.5 × 10^4 cells/well for 24 h at 37 °C and 5% CO2. Thereafter, the cell monolayers were washed with phosphate-buffered saline (PBS) and 200 μL of fresh medium with a serial dilution of the pyrazole-thiazoline derivatives and Bz (1.9–500 µM) added. The cell viability was determined by luminescent assay using the CellTiter-Glo Kit (Promega Corporation, Madison, WI, USA) based on the ATP level. After 72 h of treatment, 20 μL of CellTiter-Glo solution was added per well, and cultures were kept for 2 min under agitation. The luminescent signal was read on the GloMax reader (Promega Corporation, Madison, WI, USA). The concentration of compounds that reduced 50% of cell viability (CC50) was calculated by linear regression. At least three independent assays were performed in duplicate.
A general note: ATP-based viability assays read luminescence as a measure of living cells.

Data set [5] concerns T. cruzi (Dm28c-Luc) intracellular amastigotes. Put plainly: Trypanocidal activity against intracellular amastigotes in infected Vero cell monolayers. Format: cell-based, Trypanosoma cruzi. As to conditions: for IC90: read-out: Trypanocidal Activity Intracellular Amastigotes IC90. The method, then:
The susceptibility of intracellular amastigotes to pyrazole-thiazoline derivatives (series 1 and 2) was evaluated using 24 h T. cruzi-infected Vero cell monolayers (10:1 parasite/host cell ratio). Then, the cultures were washed with PBS to remove non-internalized parasites, and 200 μL of fresh medium with a serial dilution of pyrazole-thiazoline derivatives and Bz (0.41–100 µM) was added for 72 h at 37 °C.
as §1

Data set [6] deals with T. cruzi (Dm28c-Luc)-infected Vero cell spheroids. Put plainly: 3D culture model: T. cruzi-infected Vero cell spheroids. The class given is cell-based, Trypanosoma cruzi. The conditions noted are these: for DAPI staining fluorescence microscopy of infected microtissue: 100 μM; for parasite load, arbitrary luminescence unit (ALU): untreated ALU = 166,678 ± 22,824. The procedure:
Tridimensional Vero cell cultures were obtained as previously described. Briefly, the isolated cells (2 × 10^4/well) were cultured in 96-well U-bottom plates previously coated with 1% agarose. The spheroids were kept for 5 days at 37 °C in RPMI 1640 medium supplemented with 10% FBS for complete three-dimensional organization. Both 2D and 3D culture models were used for trypanocidal activity assays.
Vero cell spheroids were infected for 24 h with 2 × 10^5 trypomastigotes (Dm28c-Luc). […] Parasite load was assessed by the luminescence reaction after adding the luciferase substrate (luciferin 300 µg/mL). In addition, fluorescence microscopy images of untreated and treated T. cruzi-infected spheroids were acquired after fixing the cultures with 4% paraformaldehyde in PBS and 4′,6-diamidino-2-phenylindole (DAPI) staining, a DNA dye. The samples were observed under the Zeiss Axio Imager M2 fluorescence microscope (Carl Zeiss, Baden-Württemberg, Germany).

In another data set the test system is Vero cells. Put plainly: Cytotoxicity in vitro assay (CellTiter-Glo). Format: cell-based. The conditions noted are these: 72 h, mean ± SD. The method, then:
as §2, §3

Data set [7] deals with T. cruzi cysteine proteases (trypomastigote protein extract). Put plainly: Proteinase activity in solution (Z-FR-AMC). The class given is biochemical, Trypanosoma cruzi. The conditions noted are these: up to 100 µM, Z-FR-AMC substrate. The procedure: Trypomastigote protein extracts (Dm28c-Luc; 10^8 parasites/mL) were obtained as previously described. The cysteine protease activity of the total protein extracts (5 µg) was measured using the reaction buffer (CH3COONa 10 mM, pH 5.0 containing 1 mM DTT), in the presence of the fluorogenic peptide substrate […], CBZ-L-Phenylalanyl-l-Arginine amide (Z -FR-AMC), and serial dilutions of pyrazole-thiazolines derivatives (100–6.25 µM). The samples were incubated for 45 min at room temperature. The variation in arbitrary fluorescence units (AFU), corresponding to the enzymatic cleavage of the fluorogenic substrate, was monitored in a SpectraMax M2e reader (Molecular Devices, Sunnyvale, CA, USA) for 1 h, with excitation values at 370 nm and emission values at 460 nm. Extracts incubated with 0.5% DMSO or with cysteine protease inhibitor E-64 were used as […]. […] The inhibitory activity was expressed as percentage inhibition.

Setting [8] is: Trypanosoma cruzi; Dm28c-Luc, 24 h, mean ± SD; read-out: Trypanocidal Activity Trypomastigotes IC90.
[9] abbreviates: selectivity index vs Vero cells.
[10] abbreviates: 72 h, concentration higher than IC90 (100 μM in Figure 6 legend).
[11] abbreviates: Trypanosoma cruzi, Dm28c-Luc in Vero cells, 72 h, mean ± SD.
Setting [12] is: Trypanosoma cruzi, Vero, 100 µM, read-out: inhibition of cell monolayer infection (intracellular amastigotes) after washout.
Setting [13] is: Dm28c-Luc, 24 h, mean ± SD; read-out: Trypanocidal Activity Trypomastigotes IC50.
Setting [14] is: Trypanosoma cruzi, 24 h, Dm28c-Luc, 24 h, mean ± SD; read-out: Trypanocidal Activity Trypomastigotes IC50.
Setting [15] is: Dm28c-Luc in Vero cells, 72 h, mean ± SD, read-out: Trypanocidal Activity Intracellular Amastigotes IC50.
[16] abbreviates: Trypanosoma cruzi, Vero, 72 h, Dm28c-Luc in Vero cells, 72 h, mean ± SD, read-out: Trypanocidal Activity Intracellular Amastigotes IC50.
The mark [17] stands for this setting: Trypanosoma cruzi, Vero, pIC50 = −log IC50, Dm28c-Luc clone, read-out: Intracellular Amastigotes pIC50 (converted).

One may read the IC90 as the concentration at which the effect reaches the 90% level. What is called CC50 is the concentration at which the toxic effect on the cells reaches its halfway point. High values mean lower toxicity to the cells, low ones greater toxicity to the cells. Consider `O=C(Cn1ccnc1[N+](=O)[O-])NCc1ccccc1` [Bz, benznidazole, reference compound], for which, in data set [1] (100 µM), the “parasite clearance in supernatant and cell monolayers after washout” value is on record as “sustained the parasite clearance”. The “parasite relapse / clearance after prolonged treatment” value in data set [2] was “prevention of spontaneous parasite relapse for up to 60 days”. The IC50 was 19.6 ± 2.3 µM in data set [3] (Trypanosoma cruzi; Dm28c-Luc, 24 h, mean ± SD; read-out: Trypanocidal Activity Trypomastigotes IC50); 3.3 ± 1.1 µM in data set [5] (Trypanosoma cruzi, Vero, 72 h, read-out: Trypanocidal Activity Intracellular Amastigotes IC50); 3.31 µM in data set [5] (Trypanosoma cruzi, Vero, read-out: Intracellular Amastigotes pIC50 (converted)). For the same compound, the IC90 was 95.9 ± 4.7 µM in data set [3] (setting [8]) and 13.7 ± 4.2 µM in data set [5] (Trypanosoma cruzi, Vero, 72 h). The “Trypomastigotes SI (CC50 of Vero cells/IC50)” value in data set [3] (setting [9]) is reported as over 18.9. Besides, in data set [4], the CC50 at 72 h is over 500 µM. Further, the “DAPI staining fluorescence microscopy of infected microtissue” value (“DAPI staining fluorescence microscopy” below) in data set [6] was “drastic reduction in the infection profile”. Moreover, the “parasite load, arbitrary luminescence unit (ALU)” value (“parasite load” for short) in data set [6] (setting [10]) was 20,024 ± 2796 ALU.

What is called inhibition is how much of the control response was suppressed. As for `Clc1ccc(-n2cc(C3=NCCS3)cn2)c(Cl)c1` [Compound 2c, 2-(1-(2,4-dichlorophenyl)-1H-pyrazol-4-yl)-4,5-dihydrothiazole], the “reduction of release of trypomastigotes in the culture supernatant after washout” value in data set [1] (50 µM) is 85%. For the same compound, the inhibition at 50 µM in data set [1] (Trypanosoma cruzi, Vero, 50 µM, read-out: inhibition of cell monolayer infection (intracellular amastigotes) after washout) was 78%. The IC90 came out at 2.8 ± 0.6 µM in data set [3] (setting [8]) and 16.9 ± 2.5 µM in data set [5] (setting [11]). Further, the half-maximal cytotoxic concentration (CC50) in the data set with Vero cells was found to be 107 ± 11.4 µM. The compound further had a half-maximal cytotoxic concentration (CC50) at 72 h in data set [4] of over 100 µM. Moreover, in data set [7], the “maximum inhibition of cysteine protease activity” value (“maximum inhibition” below) is reported as at most 10%. Further, the “parasite load” value in data set [6] (25 µM, 72 h) is recorded as 3329 ± 250 ALU; in data set [6] (50 µM, 72 h) it was 1648 ± 343 ALU. Also, in data set [6] (25 and 50 µM, 72 h), the “inhibition compared to untreated T. cruzi-infected microtissue” value is given as “approximately 98%”.

In the case of `Clc1ccc(-n2cc(C3=NCCS3)cn2)cc1Cl` [Compound 2e, 2-(1-(3,4-dichlorophenyl)-1H-pyrazol-4-yl)-4,5-dihydrothiazole], in data set [1] (setting [12]), the inhibition at 100 µM turned out to be 69%. Also, the IC50 in data set [3] (setting [13]) is 1.9 ± 0.4 µM; in data set [3] (setting [14]), at most 2.1 µM; in data set [5] (setting [15]), 7.84 ± 1 µM; in data set [5] (setting [16]), under 10 µM; in data set [5] (setting [17]) it was under 6.92 µM. Further, the concentration for an effect of 90% (IC90) was found to be 6.9 ± 2 µM in data set [3] (setting [8]) and 30.4 ± 3.7 µM in data set [5] (setting [11]). Also, in data set [7], the “maximum inhibition” value is on record as at most 10%. Besides, the “DAPI staining fluorescence microscopy” value in data set [6] is listed as “reduction in parasite load”. For the same compound, the “parasite load” value in data set [6] (setting [10]) is given as 15,110 ± 1990 ALU.

For `Brc1ccc(-n2cc(C3=NCCS3)cn2)cc1` [Compound 2i, 2-(1-(4-bromophenyl)-1H-pyrazol-4-yl)-4,5-dihydrothiazole], in data set [1] (setting [12]), the inhibition at 100 µM worked out at 89%. Further, the IC50 in data set [3] (setting [13]) was 2.1 ± 0.9 µM; in data set [3] (setting [14]), at most 2.1 µM; in data set [5] (setting [15]), 6.8 ± 1.1 µM; in data set [5] (setting [16]) it was under 10 µM; in data set [5] (setting [17]), under 6.92 µM. Further, the IC90 in data set [3] (setting [8]) was 13.3 ± 2.8 µM; in data set [5] (setting [11]), 27.1 ± 3.6 µM. In data set [5] (setting [9]), the “Intracellular Amastigotes SI (CC50 of Vero cells/IC50)” value is reported as 31.8. Also, the “maximum inhibition” value in data set [7] is recorded as at most 10%. Also, the “DAPI staining fluorescence microscopy” value in data set [6] is listed as “reduction in parasite load”. Besides, the “parasite load” value in data set [6] (setting [10]) is listed as 25,788 ± 2776 ALU.

On to `CC[C@@H]([C@H](C)O)n1ncn(-c2ccc(N3CCN(c4ccc(OC[C@@H]5CO[C@@](Cn6cncn6)(c6ccc(F)cc6F)C5)cc4)CC3)cc2)c1=O` [posaconazole], for which the “parasite relapse / clearance after prolonged treatment” value in data set [2] is given as “unable to achieve parasite clearance”.
